Data reported in ChEMBL document CHEMBL1212745, “Structure of the heme biosynthetic Pseudomonas aeruginosa porphobilinogen synthase in complex with the antibiotic alaremycin” (Antimicrob Agents Chemother, 2010).
Values after ≈ are worked out from the molar mass of the structure shown. Active and inactive are the calls of the source. The calls are words filed in the database; no cut-off is given here.

Tests used:
[1] = Inhibition of Pseudomonas aeruginosa PAO1 porphobilinogen synthase after 60 mins by spectrophotometry
Escherichia coli [2] = test: Inhibition of Escherichia coli CSA1 porphobilinogen synthase assessed as enzyme activity at 10 mM relative to control; design: scale not given: the % may be the effect or the level left
[3] = test system: Pseudomonas aeruginosa PAO1; test: Ratio of Kcat to Km for Pseudomonas aeruginosa PAO1 porphobilinogen synthase
[4] = test system: Escherichia coli str. K-12 substr. DH10B; test: Inhibition of Escherichia coli porphobilinogen synthase assessed as enzyme activity at 10 mM relative to control; design: scale not given: the % may be the effect or the level left
[5] = Inhibition of Pseudomonas aeruginosa PAO1 porphobilinogen synthase by Lineweaver-Burke plot analysis
Methanosarcina barkeri [6] = test: Activity at Methanosarcina barkeri porphobilinogen synthase
[7] = target: T1, Delta-aminolevulinic acid dehydratase (Bacillus subtilis) (UniProt P30950); test: Inhibition of Bacillus subtilis JH642 porphobilinogen synthase assessed as enzyme activity at 10 mM relative to control; design: scale not given: the % may be the effect or the level left
T1 sequence (whole entry): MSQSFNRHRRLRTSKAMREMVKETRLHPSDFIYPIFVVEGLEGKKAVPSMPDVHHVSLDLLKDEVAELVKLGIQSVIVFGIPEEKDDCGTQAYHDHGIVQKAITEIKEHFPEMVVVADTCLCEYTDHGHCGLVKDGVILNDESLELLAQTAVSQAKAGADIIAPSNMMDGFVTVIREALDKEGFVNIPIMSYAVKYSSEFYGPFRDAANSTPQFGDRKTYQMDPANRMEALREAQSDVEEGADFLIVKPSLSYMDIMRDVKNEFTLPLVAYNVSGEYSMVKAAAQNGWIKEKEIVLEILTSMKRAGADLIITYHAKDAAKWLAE

Streptomyces coelicolor = test: Antimicrobial activity against Streptomyces coelicolor DMS 40233 up to 24 hrs by microdilution method; assay type: functional; details: DMS 40233, 24 h
Streptomyces sp. A012304 [8] = test: Inhibition of Streptomyces sp. A012304 porphobilinogen synthase assessed as enzyme activity at 10 mM relative to control; design: scale not given: the % may be the effect or the level left
Escherichia coli [9] = test: Antimicrobial activity against Escherichia coli CSA1 up to 24 hrs by microdilution method; assay type: functional; details: CSA1, 24 h
[10] = test system: Pseudomonas aeruginosa PAO1; test: Inhibition of Pseudomonas aeruginosa PAO1 porphobilinogen synthase assessed as enzyme activity at 5 mM relative to control; design: scale not given: the % may be the effect or the level left
[11] = target: T2, Delta-aminolevulinic acid dehydratase (Streptomyces avermitilis) (UniProt Q82E74); test: Inhibition of Streptomyces avermitilis DSM 46492 porphobilinogen synthase assessed as enzyme activity at 5 mM relative to control; design: scale not given: the % may be the effect or the level left
T2 sequence (whole entry): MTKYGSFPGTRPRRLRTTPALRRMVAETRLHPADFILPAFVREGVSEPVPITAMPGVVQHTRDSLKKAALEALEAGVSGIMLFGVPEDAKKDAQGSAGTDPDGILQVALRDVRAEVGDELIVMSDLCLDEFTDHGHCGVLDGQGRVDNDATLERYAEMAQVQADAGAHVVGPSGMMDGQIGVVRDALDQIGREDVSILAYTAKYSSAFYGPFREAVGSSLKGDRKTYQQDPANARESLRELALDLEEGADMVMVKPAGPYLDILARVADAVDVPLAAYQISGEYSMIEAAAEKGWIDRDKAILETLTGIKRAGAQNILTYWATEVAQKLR

[12] = target: T2, Delta-aminolevulinic acid dehydratase (Streptomyces avermitilis); test: Inhibition of Streptomyces avermitilis DSM 46492 porphobilinogen synthase assessed as enzyme activity at 10 mM relative to control; design: scale not given: the % may be the effect or the level left
Pseudomonas aeruginosa = test: Antimicrobial activity against Pseudomonas aeruginosa PAO1 up to 24 hrs by microdilution method; assay type: functional; details: PAO1, 24 h
Escherichia coli [13] = test: Antimicrobial activity against Escherichia coli CSA1 at =< 40 mg/ml up to 24 hrs by microdilution method in presence of heme and absence of 5-aminolaevulinic acid; assay type: functional, organism-based
Escherichia coli [14] = test: Antimicrobial activity against Escherichia coli CSA1 at =< 40 mg/ml up to 24 hrs by microdilution method in absence of 5-aminolaevulinic acid; assay type: functional, organism-based
[15] = target: T3, Delta-aminolevulinic acid dehydratase (Streptomyces coelicolor) (UniProt P54919); test: Inhibition of Streptomyces coelicolor DMS 40233 porphobilinogen synthase assessed as enzyme activity at 10 mM relative to control; design: scale not given: the % may be the effect or the level left
T3 sequence (whole entry): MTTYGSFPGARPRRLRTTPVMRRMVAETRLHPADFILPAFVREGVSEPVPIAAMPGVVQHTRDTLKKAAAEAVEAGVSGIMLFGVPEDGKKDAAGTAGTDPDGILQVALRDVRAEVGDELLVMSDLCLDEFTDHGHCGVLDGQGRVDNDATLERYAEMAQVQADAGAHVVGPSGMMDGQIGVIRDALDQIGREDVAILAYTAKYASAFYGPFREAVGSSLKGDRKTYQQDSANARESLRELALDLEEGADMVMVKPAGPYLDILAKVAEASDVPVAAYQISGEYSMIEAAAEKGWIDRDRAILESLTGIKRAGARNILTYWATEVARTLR

Streptomyces avermitilis = test: Antimicrobial activity against Streptomyces avermitilis DSM 46492 up to 24 hrs by microdilution method; assay type: functional; details: DSM 46492, 24 h
Priestia megaterium = test: Antimicrobial activity against Bacillus megaterium DSM319 up to 24 hrs by microdilution method; assay type: functional; details: DSM 319, 24 h
Bacillus subtilis = test: Antimicrobial activity against Bacillus subtilis JH642 up to 24 hrs by microdilution method; assay type: functional; details: JH642, 24 h
[16] = test system: Bacillus megaterium DSM 319; test: Inhibition of Bacillus megaterium DSM319 porphobilinogen synthase assessed as enzyme activity at 5 mM relative to control; design: scale not given: the % may be the effect or the level left
[17] = test system: Pseudomonas aeruginosa PAO1; test: Activity at Pseudomonas aeruginosa PAO1 porphobilinogen synthase
Streptomyces sp. A012304 [18] = test: Inhibition of Streptomyces sp. A012304 porphobilinogen synthase assessed as enzyme activity at 5 mM relative to control; design: scale not given: the % may be the effect or the level left
Escherichia coli [19] = test: Antimicrobial activity against Escherichia coli DH10B up to 24 hrs by microdilution method; assay type: functional; details: K-12 DH10B
[20] = test system: Escherichia coli str. K-12 substr. DH10B; test: Inhibition of Escherichia coli porphobilinogen synthase assessed as enzyme activity at 5 mM relative to control; design: scale not given: the % may be the effect or the level left
[21] = target: T3, Delta-aminolevulinic acid dehydratase (Streptomyces coelicolor); test: Inhibition of Streptomyces coelicolor DMS 40233 porphobilinogen synthase assessed as enzyme activity at 5 mM relative to control; design: scale not given: the % may be the effect or the level left
[22] = Inhibition of Methanosarcina barkeri porphobilinogen synthase by Lineweaver-Burke plot analysis
Escherichia coli [23] = test: Antimicrobial activity against Escherichia coli CSA1 at =< 40 mg/ml up to 24 hrs by microdilution method in presence of 5-aminolaevulinic acid; assay type: functional, organism-based
[24] = Inhibition of Methanosarcina barkeri porphobilinogen synthase after 60 mins by spectrophotometry
[25] = test system: Bacillus megaterium DSM 319; test: Inhibition of Bacillus megaterium DSM319 porphobilinogen synthase assessed as enzyme activity at 10 mM relative to control; design: scale not given: the % may be the effect or the level left
Escherichia coli [26] = test: Antimicrobial activity against Escherichia coli CSA1 at =< 40 mg/ml up to 24 hrs by microdilution method in presence of 5-aminolaevulinic acid and heme; assay type: functional, organism-based
[27] = Antimicrobial activity against Streptomyces sp. A012304 up to 24 hrs by microdilution method; assay type: functional; details: Streptomyces sp. A012304, 24 h
Escherichia coli [28] = test: Inhibition of Escherichia coli CSA1 porphobilinogen synthase assessed as enzyme activity at 5 mM relative to control; design: scale not given: the % may be the effect or the level left
Methanosarcina barkeri [29] = test: Ratio of Kcat to Km for Methanosarcina barkeri porphobilinogen synthase
[30] = test system: Pseudomonas aeruginosa PAO1; test: Inhibition of Pseudomonas aeruginosa PAO1 porphobilinogen synthase assessed as enzyme activity at 10 mM relative to control; design: scale not given: the % may be the effect or the level left
[31] = target: T1, Delta-aminolevulinic acid dehydratase (Bacillus subtilis); test: Inhibition of Bacillus subtilis JH642 porphobilinogen synthase assessed as enzyme activity at 5 mM relative to control; design: scale not given: the % may be the effect or the level left

Work on `C=C(NC(C)=O)C(=O)CCC(=O)O` [ALAREMYCIN] yielded an IC50 [1] of 2100 µM, an Activity (Escherichia coli [2]) of less than 1% and a kcat/Km [3] of 50300 M⁻¹ s⁻¹. It also gave an Activity [4] of less than 1%, a Ki [5] of 1330 µM and a Km (Methanosarcina barkeri [6]) of 0.07 mM. For the same compound, the kcat (Methanosarcina barkeri [6]) was 0.012 s⁻¹, the Activity [7] was 30% and the MIC (Streptomyces coelicolor) was 8 mM (≈ 1480 µg/mL). The Activity (Streptomyces sp. A012304 [8]) was 79%, the MIC (Escherichia coli [9]) was 10 mM (≈ 1850 µg/mL) and the Activity [10] was 92%. For the same compound, the Activity [11] was 68%, the Activity [12] was less than 1% and the MIC (Pseudomonas aeruginosa) was 12 mM (≈ 2220 µg/mL). For the same compound, the Activity (Escherichia coli [13]) was “inactive”, the Activity (Escherichia coli [14]) was “Active” and the Activity [15] was 22%. The MIC (Streptomyces avermitilis) was 8 mM (≈ 1480 µg/mL), the MIC (Priestia megaterium) was 4 mM (≈ 741 µg/mL) and the MIC (Bacillus subtilis) was 14 mM (≈ 2590 µg/mL). It also gave an Activity [16] of 3%, a Km [17] of 0.32 mM and a kcat [17] of 16.1 s⁻¹. For the same compound, the Activity (Streptomyces sp. A012304 [18]) was 90%, the MIC (Escherichia coli [19]) was 4 mM (≈ 741 µg/mL) and the Activity [20] was 30%. For the same compound, the Activity [21] was 77%, the Ki [22] was 1510 µM and the Activity (Escherichia coli [23]) was “Active”. The IC50 [24] was 2200 µM, the Activity [25] was less than 1% and the Activity (Escherichia coli [26]) was “inactive”. For the same compound, the MIC [27] was greater than 20 mM, the Activity (Escherichia coli [28]) was 36% and the kcat/Km (Methanosarcina barkeri [29]) was 170 M⁻¹ s⁻¹. For the same compound, the Activity [30] was 25% and the Activity [31] was 61%.
